Consider one compound from patent US8864853B2, “Additive mixture for the bactericidal and anticorrosive additization of fuels” (l'Air Liquide Societe Anonyme pour l'etude et …, priority 2009, dated 2014).

The data set in a line: Example 1: visual appearance of diesel with Cu or brass sheet. It is filed as physicochemical. The settings on record: evaluation of Example 1; diesel oil with 5% FAME; time delay, concentration-dependent, turbulent flow. The protocol: Materials used: • 3,3′-methylenebis(5-methyloxazolidine) • brass 63 (100×20×1 mm), Cat. No.: 16-24 from Riegger Industriehandel, Reinbek, Federal Republic of Germany • E-copper ((100×20×1 mm), Cat. No.: 15-54 from Riegger • diesel fuel to EN 590, with 5% (V/V) fatty acid methyl ester
Procedure: The solutions and the metal sheet were each introduced into a 500 ml wide-neck bottle. Solutions 1A-1C were not stirred; solutions 1D-1G were stirred with a magnetic stirrer. The appearance of the solutions was assessed visually.

SMILES strings stand for the structures.

Regarding `CC1CN(CN2COC(C)C2)CO1` (stereo not shown) [3,3′-methylenebis(5-methyloxazolidine)], the “compatibility as an additive to diesel oil in contact with copper or nonferrous metal” value is “incompatible”.
